Our source for the IC50 and inhibition values is US10336707B2, “Heterocyclic derivatives modulating activity of certain protein kinases” (EUDENDRON S.R.L., priority 2014, dated 2019).

SMILES strings stand for the structures.

Assay [1] addresses T1, ROS (Homo sapiens, UniProt P08922).
T1 construct: either as full-length or enzymatically active fragments; purchased ProQinase GmbH (Freiburg, Germany)
Briefly: Radiometric protein kinase assay (33PanQuinase Activity Assay), ROS. The class given is biochemical. Particulars: ATP 0.3 μM. How it is done:
(§1) A proprietary radiometric protein kinase assay (33PanQuinase® Activity Assay) developed by ProQuinase GmbH (Freiburg, Germany) was used for measuring the kinase activity of selected protein kinases. All assays were performed in FlashPlates™ wells 96 Perkin Elmer (Boston, Mass., USA) in a reaction volume of 50 μl. The reaction mixture was obtained in 4 steps in the following order: • 1. 10 μl of a solution of non-radioactive ATP in water; • 2. 25 μl of assay buffer/[γ-^33P]-ATP mixture • 3. 5 μl of test sample in 10% DMSO • 4. 10 μl of enzyme/substrate mixture
(§2) All protein kinases provided by ProQinase were expressed in Sf9 insect cells or in E. coli as recombinant GST-fusion proteins or His-tagged proteins, either as full-length or enzymatically active fragments. […] Kinases from external vendors (CAR=Carna Biosciences Inc.; INV=Life Technologies (Invitrogen Corporation); MIL=Merck-Millipore (Millipore Corporation), were expressed, purified and quality-controlled by virtue of the vendors readings.
(§3) A stock solution of compound of formula (I) was diluted to 5×10-04M/100% DMSO. […] Incorporation of 33Pi (counting of “cpm”) was determined with a microplate scintillation counter (Microbeta, Wallac). […]
(§4) Based on each 10 corresponding residual activities, IC50 values were calculated using Prism 5.04 for Windows (Graphpad, San Diego, Calif.). […]

Assay [2] concerns ALK-negative HL60 cells. Kind of assay: Tritiated thymidine uptake cell proliferation assay, HL60 (ALK-negative control). It is filed as cell-based. Particulars: Homo sapiens, HL-60; cell line HL60, ALK negative control; read-out: IC50 of cellular proliferation, HL60. The method, then:
Method: Tritiated Thymidine Uptake Cell Proliferation Assay
The following procedure was used with parent untransformed BaF3 cells, BaF3 cells transformed with the oncogenic fusion protein NPM/ALK, NPM/ALK positive SUDHL-1 cells, NPM/ALK positive SUPM2, ALK-negative HL60 cells, NPM/ALK positive KARPAS-299 cells. The parent untransformed BaF3 cells or Alk-negative HL60 cells are used as controls. Cells were seeded in U-bottomed 96-well plates at 10000 cells/well in a volume of 100 μl in supplemented medium. In the case of the parent untransformed BaF3 cells, the medium was supplemented with IL-3. Serial dilutions of inhibitors were added to the appropriate wells and volumes adjusted to 200 μl. Controls were treated with the equivalent volume of vehicle, DMSO, alone. Plates were incubated at 37° C. for 72 h. 3[H]-thymidine (1 μCi/well) was added for the last 16 h of incubation. Cells were harvested on to paper filters and 3[H]-thymidine incorporation was measured using a scintillation counter (1430 MicroBeta, Wallac, Turku, Finland). The 50% inhibitory concentration (IC50) was defined as the concentration of inhibitor, expressed in nanomolar units, that gave a 50% decrease in 3[H]-thymidine uptake compared with controls.
Potentially toxic effects were assessed using parent untransformed BaF3 cells or ALK negative HL60 cells. […]

For assay [3], the target named is T2, ALK wild-type (GST-His-tag) (Homo sapiens, UniProt Q9UM73).
T2 construct: either as full-length or enzymatically active fragments; purchased ProQinase GmbH (Freiburg, Germany)
T2 sequence (Q9UM73 19-1620): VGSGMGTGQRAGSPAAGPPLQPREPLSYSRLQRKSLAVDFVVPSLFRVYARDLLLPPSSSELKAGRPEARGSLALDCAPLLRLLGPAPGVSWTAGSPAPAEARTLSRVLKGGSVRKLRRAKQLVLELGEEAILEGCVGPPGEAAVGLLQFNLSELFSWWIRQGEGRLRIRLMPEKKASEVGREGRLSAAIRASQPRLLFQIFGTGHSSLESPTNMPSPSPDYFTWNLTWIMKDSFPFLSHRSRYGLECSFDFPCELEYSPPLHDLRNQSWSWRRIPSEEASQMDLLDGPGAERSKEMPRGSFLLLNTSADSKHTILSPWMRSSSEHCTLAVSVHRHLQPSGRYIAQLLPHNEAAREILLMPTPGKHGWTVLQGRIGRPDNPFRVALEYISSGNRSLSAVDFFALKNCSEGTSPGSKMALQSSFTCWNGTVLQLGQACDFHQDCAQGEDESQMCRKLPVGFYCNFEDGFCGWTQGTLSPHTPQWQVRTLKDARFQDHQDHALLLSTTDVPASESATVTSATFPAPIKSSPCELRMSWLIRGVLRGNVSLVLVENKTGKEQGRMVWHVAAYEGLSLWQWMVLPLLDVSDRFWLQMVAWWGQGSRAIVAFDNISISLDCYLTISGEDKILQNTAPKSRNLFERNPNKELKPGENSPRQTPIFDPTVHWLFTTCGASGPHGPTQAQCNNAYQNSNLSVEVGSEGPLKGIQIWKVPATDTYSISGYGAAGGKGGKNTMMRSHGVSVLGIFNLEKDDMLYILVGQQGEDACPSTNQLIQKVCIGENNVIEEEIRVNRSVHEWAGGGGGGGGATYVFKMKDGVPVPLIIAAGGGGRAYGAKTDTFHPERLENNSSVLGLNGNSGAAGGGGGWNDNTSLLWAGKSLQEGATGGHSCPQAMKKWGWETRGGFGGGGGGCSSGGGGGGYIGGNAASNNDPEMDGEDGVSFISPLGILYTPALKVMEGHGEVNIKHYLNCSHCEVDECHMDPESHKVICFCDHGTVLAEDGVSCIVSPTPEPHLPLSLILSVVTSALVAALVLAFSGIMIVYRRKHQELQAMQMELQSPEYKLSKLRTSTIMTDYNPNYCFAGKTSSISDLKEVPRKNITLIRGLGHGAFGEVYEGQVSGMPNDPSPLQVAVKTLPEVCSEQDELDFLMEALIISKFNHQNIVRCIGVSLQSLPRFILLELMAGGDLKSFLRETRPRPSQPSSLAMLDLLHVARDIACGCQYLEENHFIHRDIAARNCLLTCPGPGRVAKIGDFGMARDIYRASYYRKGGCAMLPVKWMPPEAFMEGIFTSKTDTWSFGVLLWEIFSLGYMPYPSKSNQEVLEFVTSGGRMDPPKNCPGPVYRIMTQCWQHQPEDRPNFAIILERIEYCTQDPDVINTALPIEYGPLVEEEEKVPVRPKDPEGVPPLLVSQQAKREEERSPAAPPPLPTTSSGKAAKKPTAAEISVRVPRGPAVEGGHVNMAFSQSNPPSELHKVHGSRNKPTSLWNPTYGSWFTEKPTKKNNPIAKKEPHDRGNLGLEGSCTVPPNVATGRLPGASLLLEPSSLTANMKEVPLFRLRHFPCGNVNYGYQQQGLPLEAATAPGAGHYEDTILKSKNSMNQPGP
Briefly: Radiometric protein kinase assay (33PanQuinase Activity Assay), ALK wild-type. It is filed as biochemical. Particulars: ATP 0.3 μM. How it is done: as §1, §2, §3, §4

Assay [4] deals with T3, ALK F1174L (GST-His-tag) (Homo sapiens, UniProt Q9UM73, F1174L).
T3 construct: either as full-length or enzymatically active fragments; purchased ProQinase GmbH (Freiburg, Germany)
T3 sequence (Q9UM73 19-1620 F1174L): as the sequence (Q9UM73 19-1620) above, with F1156L counted along it
Briefly: Radiometric protein kinase assay (33PanQuinase Activity Assay), ALK F1174L. It is filed as biochemical. Particulars: ATP 0.3 μM. How it is done: as §1, §2, §3, §4

Assay [5] deals with Karpas 299 lymphoma cell line positive for the oncogenic fusion protein NPM-ALK. Briefly: Tritiated thymidine uptake cell proliferation assay, Karpas 299. The class given is cell-based. Particulars: Homo sapiens.

T1 sequence (P08922 1883-2347 limits assumed): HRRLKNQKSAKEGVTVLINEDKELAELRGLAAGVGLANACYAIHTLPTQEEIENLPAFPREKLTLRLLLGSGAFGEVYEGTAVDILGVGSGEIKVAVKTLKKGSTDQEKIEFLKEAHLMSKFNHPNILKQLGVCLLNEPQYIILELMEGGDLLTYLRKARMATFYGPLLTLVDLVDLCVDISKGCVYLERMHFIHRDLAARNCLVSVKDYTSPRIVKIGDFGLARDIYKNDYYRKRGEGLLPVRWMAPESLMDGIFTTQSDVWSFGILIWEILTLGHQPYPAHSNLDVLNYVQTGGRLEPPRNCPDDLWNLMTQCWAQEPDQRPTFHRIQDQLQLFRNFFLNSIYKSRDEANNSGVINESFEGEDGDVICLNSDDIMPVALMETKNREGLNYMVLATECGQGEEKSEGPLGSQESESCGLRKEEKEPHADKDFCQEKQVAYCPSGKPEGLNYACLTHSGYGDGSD

As usually defined, the inhibition is the share of the control response that was lost under treatment. Consider `CN1CCN(c2ccc(C(=O)Nc3n[nH]c4cc(-c5ccc(O)cc5)c(Cc5cc(F)cc(F)c5)cc34)c(NC3CCOCC3)c2)CC1` [Example 3, N-[5-[(3,5-difluorophenyl)methyl]-6-(4-hydroxyphenyl)-1H-indazol-3-yl]-4-(4-methylpiperazin-1-yl)-2-(tetrahydropyran-4-ylamino)benzamide], for which the IC50 in assay [1] came out at 160 nM; in assay [2], 17000 nM; in assay [3], 29 nM; in assay [4], 46 nM; in assay [5] (KARPAS-299, read-out: IC50 of cellular proliferation, Karpas299), 23 nM. For the same molecule, the inhibition at 0.2 µM in assay [5] (KARPAS-299, read-out: % Inhibition Karpas 299 cells) came to 93%.
